Where two headings read alike, the source gives them in different places.
What was measured:
FTH ferritin [1] = target: T1, FTH ferritin (Homo sapiens, UniProt P02794); test: one-step process incorporation of small molecule agents into FTH ferritin; assay type: physicochemical; conditions: for Incorporation efficiency (wt %) / Number of agent incorporated: 60 min; for Optimal pH in reaction: pH of buffer giving the largest amount of incorporation within ferritin
T1 construct: made in house; host or cells: Escherichia coli BL21 (DE3), plasmid pET20-FTH
T1 sequence (P02794 whole entry): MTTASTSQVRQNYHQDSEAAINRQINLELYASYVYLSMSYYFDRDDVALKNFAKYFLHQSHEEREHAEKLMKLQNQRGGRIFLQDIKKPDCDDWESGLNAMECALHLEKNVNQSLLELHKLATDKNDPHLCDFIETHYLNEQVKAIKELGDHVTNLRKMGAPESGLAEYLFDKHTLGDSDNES
Protocol: All of the reactions were performed in 0.1 mL volume. […] The absorbances were measured using spectrophotometer (DU-800, Beckman Coulter Inc.) for these solutions, and the concentration of contained protein was determined using the protein assay CBB solution (Nacalai Tesque, Inc.) as well as bovine albumin as a standard. Absorbances at 280 nm and 480 nm were measured for Rhodamine B and Congo Red. […] Then, after the absorbances were calibrated based on the absorbances that were derived from the proteins and presumed by the amount of contained protein quantified using the protein assay CBB solution, the concentrations of small molecule agents were determined based on the calibration curves obtained by the absorbances of the molecules. […] As a result, the one-step process enabled incorporating also the small molecule agents with different physical properties such as molecular weight and pKa simply and easily.

FTH ferritin [2] = target: T1, FTH ferritin; test: ratio of amounts incorporated, one-step vs disassembly-reassembly process; assay type: physicochemical
Protocol: As a control, some of small molecule agents listed in Table 1 was incorporated into ferritin also at the disassembly-reassembly process. […] Then, 10 μL of 1M Tris-HCl buffer (pH 9.0) was added for neutralization, and the resulting solution was left to stand for 15 minutes at room temperature. After the standing, 0.5 mL of water was added. After the resulting solution was centrifuged (at 15,000 rpm for one minute), the supernatant was injected into the desalting column PD-10 (Sephadex G-25 filled product, GE Healthcare Inc.) equilibrated with 10 mM Tris-HCl buffer (pH 8) to separate the protein from a reagent that was not encapsulated. […]
The absorbances were measured using spectrophotometer (DU-800, Beckman Coulter Inc.) for these solutions, and the concentration of contained protein was determined using the protein assay CBB solution (Nacalai Tesque, Inc.) as well as bovine albumin as a standard. Absorbances at 280 nm and 480 nm were measured for Rhodamine B and Congo Red. […] Then, after the absorbances were calibrated based on the absorbances that were derived from the proteins and presumed by the amount of contained protein quantified using the protein assay CBB solution, the concentrations of small molecule agents were determined based on the calibration curves obtained by the absorbances of the molecules. […]

[3] = cited from earlier work
[4] = cited from earlier work; remark: listed apart in the source
[5] = pKa of the organic compound; assay type: physicochemical; conditions: average of plural pKa values
Description: The pKa of the organic compound can be determined by a neutralization titration method (Kagaku Binran Kiso-hen I and II (Handbook of Chemistry, basic I and II) (Ver. 4) edited by The Chemical Society of Japan, Maruzen Publishing, 1993). […] When the organic compound has a single pKa value, the value is employed as the pKa of the organic compound.

FTH ferritin [6] = target: T1, FTH ferritin; test: one-step process incorporation of uranine into FTH ferritin; assay type: physicochemical
Protocol: All reactions were carried out in 1 mL volume. After the standing and centrifuging (at 15,000 rpm for one minute), the supernatant was injected into the desalting column PD-10 (Sephadex G-25 filled product, GE Healthcare Inc.) equilibrated with 10 mM Tris-HCl buffer (pH 8) to separate the protein from a reagent that was not encapsulated, for obtaining 3.5 mL of sample solution. The absorbance at 430 nm was measured using spectrophotometer (DU-800, Beckman Coulter Inc.) for the resulting solution in order to determine the concentration of uranine. The concentration of contained protein was determined using the protein assay CBB solution (Nacalai Tesque, Inc.) as well as bovine albumin as a standard.

FTH ferritin [7] = target: T1, FTH ferritin; test: disassembly-reassembly process incorporation of uranine into FTH ferritin; assay type: physicochemical
Protocol: As a control, uranine was incorporated into ferritin in the disassembly-reassembly process. […] Then, 10 μL of 1 M Tris-HCl buffer (pH 9.0) was added for neutralization, and the resulting solution was left to stand for 15 minutes at room temperature. After the standing, 0.5 mL of water was added. After the resulting solution was centrifuged (at 15,000 rpm for one minute), the supernatant was injected into the desalting column PD-10 (Sephadex G-25 filled product, GE Healthcare Inc.) equilibrated with 10 mM Tris-HCl buffer (pH 8) to separate the protein from a reagent that was not encapsulated. Whole amount (3.5 mL) of the resulting solution was concentrated to 0.1 mL by centrifugal ultrafiltration using Vivaspin 20-100K (GE Healthcare Inc.).

## CN(C)C(=N)NC(=N)N [Metformin]
FTH ferritin [1]; pH 4, 40° C.
  Incorporation efficiency (wt %): 0.0 wt %
  Number of agent incorporated: 0.0
FTH ferritin [1]; pH 6, 40° C.
  Incorporation efficiency (wt %): 0.0 wt %
  Number of agent incorporated: 0.2
FTH ferritin [1]; pH 8, 20° C.
  Incorporation efficiency (wt %): 1.9 wt %
  Number of agent incorporated: 78.0
FTH ferritin [1]; pH 8, 40° C.
  Incorporation efficiency (wt %): 0.1 wt %
  Number of agent incorporated: 2.9
FTH ferritin [1]; pH 8, 60° C.
  Incorporation efficiency (wt %): 1.3 wt %
  Number of agent incorporated: 53.5
FTH ferritin [1]; pH 10, 40° C.
  Incorporation efficiency (wt %): 0.0 wt %
  Number of agent incorporated: 1.8
FTH ferritin [1]
  Optimal pH in reaction: 8
FTH ferritin [2]
  ratio of amount incorporated at the one-step process to that at the disassembly-reassembly process: 2.5 fold

## CC(C)(C)NCC(O)c1cc(O)cc(O)c1 (stereo not shown) [Terbutaline]
[3]
  logP: 0.9
FTH ferritin [1]; pH 4, 40° C.
  Incorporation efficiency (wt %): 0.0 wt %
  Number of agent incorporated: 0.0
FTH ferritin [1]; pH 6, 40° C.
  Incorporation efficiency (wt %): 0.9 wt %
  Number of agent incorporated: 19.5
FTH ferritin [1]; pH 8, 40° C.
  Incorporation efficiency (wt %): 0.9 wt %
  Number of agent incorporated: 21.0
FTH ferritin [1]; pH 10, 20° C.
  Incorporation efficiency (wt %): 1.4 wt %
  Number of agent incorporated: 32.8
FTH ferritin [1]; pH 10, 40° C.
  Incorporation efficiency (wt %): 1.2 wt %
  Number of agent incorporated: 27.1
FTH ferritin [1]; pH 10, 60° C.
  Incorporation efficiency (wt %): 5.3 wt %
  Number of agent incorporated: 126.8
FTH ferritin [1]
  Optimal pH in reaction: 10
[4]; second pKa value
  pKa: 9.76
[4]; single or first pKa value
  pKa: 8.86
[5]
  pKa: 9.31

## O=C([O-])c1ccccc1-c1c2ccc(=O)cc-2oc2cc([O-])ccc12.[Na+].[Na+] [Uranine]
FTH ferritin [6]
  amount of encapsulated uranine, one-step vs disassembly-reassembly process: 2.7 fold
FTH ferritin [6]; 30° C., pH 3
  Uranine: 71.0 µM
  Uranine/FTH ferritin: 99.2
FTH ferritin [6]; 30° C., pH 5
  Uranine: 135.6 µM
  Uranine/FTH ferritin: 183.6
FTH ferritin [6]; 30° C., pH 7
  Uranine: 68.5 µM
  Uranine/FTH ferritin: 90.0
FTH ferritin [6]; 60° C., pH 3
  Uranine: 198.9 µM
  Uranine/FTH ferritin: 267.5
FTH ferritin [6]; 60° C., pH 5
  Uranine: 201.4 µM
  Uranine/FTH ferritin: 265.3
FTH ferritin [6]; 60° C., pH 7
  Uranine: 93.4 µM
  Uranine/FTH ferritin: 137.7
FTH ferritin [6]; presumed from pH=2.6+0.6 pKa relation
  optimum value of the reaction pH presumed from average pKa: ~5
[4]; second pKa value
  pKa: 4.4
[4]; single or first pKa value
  pKa: 2.2
[4]; third printed pKa value
  pKa: 6.7
[5]
  pKa (average): 4.4
FTH ferritin [7]; uranine in reaction 1 mM
  Uranine: 864.5 µM
  Uranine/FTH ferritin: 36.7
FTH ferritin [7]; uranine in reaction 5 mM
  Uranine: 1186.3 µM
  Uranine/FTH ferritin: 47.2
FTH ferritin [7]; uranine in reaction 10 mM
  Uranine: 1382.1 µM
  Uranine/FTH ferritin: 52.6
FTH ferritin [7]; uranine in reaction 50 mM
  Uranine: 1764.2 µM
  Uranine/FTH ferritin: 72.5
FTH ferritin [7]; uranine in reaction 100 mM
  Uranine: 2106.1 µM
  Uranine/FTH ferritin: 100.2
FTH ferritin [7]; uranine in reaction 300 mM
  Uranine: 2405.1 µM
  Uranine/FTH ferritin: 90.8

Reference: US20210253651A1, “METHOD FOR PRODUCING ORGANIC COMPOUND-ENCAPSULATING FERRITIN” (Ajinomoto Co., Inc., priority 2018, published 2021)
